# In PubChem BioAssay AID624408 (The Scripps Research Institute Molecular Screening Center, 2012):
# Activity calls are given as the source filed them.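 The calls were made as follows: active = IC50 at or below 10 µM; inactive = IC50 above 10 µM.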
# System: parental CHO-K1, ATP-induced calcium, Fluo-8 fluorescence
# Experiment: Gq calcium signaling inhibition in parental CHO, late-stage follow-up, artefact control for OX1R antagonist project, cell-based, fluorescence, dose response (AID 624408)
row,Structure (SMILES),IC50
1,COCCCNC(=O)CCC(=O)NNc1nc2ccccc2c2nc(-c3ccccc3)nn12,> 59.6 µM (inactive)
2,CSc1cccc(N2CC(C(=O)NCCN3C(=O)S/C(=C\c4cccnc4)C3=O)CC2=O)c1 (stereo unspecified),> 59.6 µM (inactive)
3,Cc1cc(Cl)ccc1OCCCC(=O)NCCN1C(=O)S/C(=C\c2cccnc2)C1=O,7.22 µM
4,O=C(CSc1ccc(-c2ccccc2)nn1)c1cccs1,> 59.6 µM (inactive)
5,CN(N=Cc1cc([N+](=O)[O-])ccc1O)c1ccccc1,> 59.6 µM (inactive)
6,CCSC1=C(C#N)C(c2ccccc2Cl)C(C(=O)c2cccs2)C(O)(C(F)(F)F)N1 (stereo unspecified),21.8 µM (inactive)
7,Cc1ccc(-c2csc3nnc(SCC(=O)Nc4nsc(-c5ccccc5)n4)n23)cc1,> 59.6 µM (inactive)
8,COc1cc(OC)c(-c2nc3ccccc3s2)cc1OC,> 59.6 µM (inactive)
9,Fc1cccc(Nc2nc3ccccc3n3cnnc23)c1,> 59.6 µM (inactive)
10,O=C(CN1C(=O)/C(=C\c2cccc(Br)c2)Oc2ccccc21)NCC1CCCO1 (stereo unspecified),> 59.6 µM (inactive)
11,CCOC(=O)N1CCN(C(=O)CSc2ccc(-c3ccccc3)nn2)CC1,> 59.6 µM (inactive)
12,Cc1cccc(C=NNC(=O)c2cc3c(s2)-c2ccccc2CC3)c1,> 59.6 µM (inactive)
13,CC(=C/c1ccccc1)/C=C1/SC(N2CCOCC2)=NC1=O,52.1 µM (inactive)
14,COc1cccc(/C=C2/Oc3ccccc3N(CC(=O)NCC3CCCO3)C2=O)c1 (stereo unspecified),> 59.6 µM (inactive)
15,Cc1c(NS(=O)(=O)c2cccc(C(=O)OCC(=O)N(C)C3CCCCC3)c2)c(=O)n(-c2ccccc2)n1C,> 59.6 µM (inactive)
16,CCn1c(SCC(=O)Nc2ccc3c(c2)c2ccccc2n3CC)nnc1-c1cnccn1,> 59.6 µM (inactive)
17,O=c1cc(CN2CC(O)Cc3ccc4ccccc4c32)nc2sccn12 (stereo unspecified),55.4 µM (inactive)
18,CCN(CC)c1ccc(NC(=O)Cn2c(C(C)NC(=O)c3ccccc3)nc3ccccc32)cc1 (stereo unspecified),> 59.6 µM (inactive)
19,Cc1cccc(NC(=O)[C@@H]2CCCN2S(=O)(=O)c2ccc(Cl)cc2)c1,> 59.6 µM (inactive)
20,CCc1cc2c(SCC(=O)N(CC)c3c(N)n(Cc4ccccc4)c(=O)[nH]c3=O)ncnc2s1,> 59.6 µM (inactive)
21,CCOc1ccccc1C(=O)Nc1ccc2nc3n(c(=O)c2c1)CCCCC3,> 59.6 µM (inactive)
22,COc1ccc(OC)c(S(=O)(=O)NCC(c2ccco2)N2CCc3ccccc32)c1 (stereo unspecified),> 59.6 µM (inactive)
23,Cc1noc(C)c1COc1ccc(C(=O)OCC(=O)N2CC(=O)Nc3ccccc32)cc1,> 59.6 µM (inactive)
24,CCc1cc(C(=O)OCC(=O)N2CCC(c3ccccc3)=N2)sc1C,> 59.6 µM (inactive)
25,CSc1cccc(NC(=O)C2CCCN2S(=O)(=O)c2ccc(Br)s2)c1 (stereo unspecified),20.4 µM (inactive)
26,Cc1ccccc1NC(=O)C1CCCN1S(=O)(=O)c1ccccc1C(F)(F)F (stereo unspecified),> 59.6 µM (inactive)
